# Test results published in patent publication US20040220277A1, “Enantiomeric amphetamine compositions” (priority 2003, published 2004).
# What was measured:
# Rj: Wistar (Han) rats = test: EEG sleep-wake cycle in conscious freely-moving rats; assay type: in vivo, rat
# Description: They were supplied by Elevage Janvier, 53940 Le Genest-Saint-Isle, France.
# Implanted animals were individually placed in transparent perspex boxes in a soundproof, light-controlled, ventilated cabin and were habituated to the recording environment for at least 10 days. Drug-free baseline EEG was recorded for 23 hours. Then the rats were administered vehicle and the EEG recorded for another 23 hours. The next day, rats were treated with one of the 4 amphetamine forms first at the dose of 3 mg/kg, than at the dose of 1 mg/kg. The following variables were measured: latency to the appearance of stable slow-wave sleep (SWS), latency to the first appearance of rapid-eye-movement sleep (REM), the number of REM sleep phases, and the distribution percentage of wake/SWS/REM (sleep architecture).
# Test sessions following treatment were individually compared with corresponding control sessions. As no differences were apparent after vehicle, the 2 control sessions with and without vehicle, were averaged.
# [1] = test system: spontaneously hypertensive rat (SHR); test: Behavioural study, multiple Random-Interval/Extinction operant schedule in the SHR model of ADHD; assay type: in vivo; details: for General activity level (total number of lever presses), overactivity / Impulsiveness (number of responses with short IRTs): d 0.5-1.5 mg/kg, l 1.0-3.0 mg/kg i.p.; for Sustained attention following transformation: transformed data, saline as baseline, FIG. 6
# Excerpt: (§1) Subjects: A total number of 32 male rats, 16 spontaneously hypertensive (SHR) and 16 Wistar/Kyoto (WKY), participated in final part of this study. (Initially, 8 extra rats, 6 SHRs and 2 controls, were trained with a view to select two groups of 16 with the greatest difference in baseline measures. However, there was little difference when comparing all the rats with a selected subgroup—they both separated well.) At the start of testing, the rats were ˜5 wk old and experimentally naive. Young rats were required, as ADHD primarily is a child and adolescent disorder. The SHRs were obtained from Charles River Italy (SHR/Cr1 Ico) and the WKYs from Charles River France (WKY/Nico) as other breeding centers were unable to deliver rats at the time we needed them. At the University of Oslo, the rats were housed individually in 41×25×25 (height) cm transparent cages and had free access to food (BK Standard RM 1 from Beekay Feeds Universal Ltd.).
# (§2) The rats had access to water at all times during the habituation period. However, after completing the habituation period, the rats were deprived of water for 21 hr a day. The rats received water as reinforcers during the experimental session and had free access to water for 90 min after the experimental session. The temperature in the housing area was ˜20° C. The light in the housing area was on from 0700 to 1900 hours. The behavioral training took place between 0900 and 1230 hours seven days a week.
# (§3) Behavioral apparatus: Sixteen Campden Instruments operant chambers were used in the study. The animal working space in eight of the chambers is 25×25×30 (height) cm and 25×25×20 (height) cm in the other eight chambers. The 2.8-W house light and a fan producing a low masking noise were on during the entire experimental session.
# (§4) During training sessions, either one or two retractable levers were used. A 2.8-W cue light was located above each lever. The rats' response consisted of pressing one of the levers with a dead weight of at least 3 g to activate a microswitch. The reinforcers (0.01 ml tap water) were delivered by a liquid dipper located in a small recessed cubicle with a 2.8-W cue light lit when a reinforcer is presented. A 7×5 cm transparent plastic lid separated the cubicle from the rat's working space. The rat could easily open the lid with a light push with the nose or paw. Each chamber was ventilated and placed in a sound-resistant outer housing. A computer and an online system (SPIDER, Paul Fray, Ltd., UK) recorded the behavior and scheduled reinforcers (drops of water).
# Before the initiation of the study, the rats were randomized and balanced into two groups. Each group of rats consisted of an equal number of SHRs and WKYs. Each rat was assigned to a specific chamber, which it occupied during all sessions. The rat was returned to its living cage after each session. All animals were run seven days a week.
# Response acquisition: The training period started with a single 30-min habituation session. During the habituation session, the lid between the working space and the reinforcement cubicle was kept open. No lever was present and no cue light above any lever was lit. The house light was on. From this time on the rats were deprived of water for 21 hr a day; this is a moderate, but sufficient deprivation for motivating the animal.
# The habituation session was followed by two 30-min magazine training sessions. The lid was taped open, no levers were present, and the house light was on, but the cue lights above the levers were not lit. The computer delivered water on the average every 10s independent of the rat's behavior (a variable-time schedule).
# In the next two sessions, the rat was trained to open the lid to gain access to the water. The lid was not taped open, no levers were present and the lights above the levers were not activated. The house light was on. Each lid opening was followed by a presentation of a single drop of water. […]
# Wistar Kyoto Rat (WKY) = test: Behavioural study, multiple Random-Interval/Extinction operant schedule in WKY controls; assay type: in vivo; details: single isomers; for General activity level: FIG. 3; for Impulsiveness: FIG. 4
# Excerpt: as §1, §2, §3, §4
# Before the initiation of the study, the rats were randomized and balanced into two groups. Each group of rats consisted of an equal number of SHRs and WKYs. Each rat was assigned to a specific chamber, which it occupied during all sessions. […]
# Rats = test: Weight gain, food and water intake in rats with 3 hours per day access; assay type: in vivo, rat; details: for Body weight gain: once a day dosing, measured every day; for Water intake: once a day, one hour before 3 h access to food and water; for Food intake: over the 3 hours of access each day, 10 day period
# Description: Rats were given access to food and water for 3 hours per day. The acclimation period was 10 days. Thereafter, vehicle or doses of l- or d-amphetamine sulphate were administered to the rats once a day one hour before access to food and water. Body weight was measured every day (FIG. 11) before the drug administration and then food intake (FIG. 12) and water intake were measured over the 3 hours each day when the rats had access to the same.
# [2] = test system: noradrenaline (NA) release, frontal cortex; test: Basal release of tritiated noradrenaline from rat brain slices in vitro (Brandel system); assay type: cell-based
# Description: The DA and NA release is measured in separate brain areas, i.e., in striatum for DA release (evaluating tritiated dopamine) and in the frontal cortex for NA release (evaluating tritiated noradrenaline), using a Brandel system. The brain slices are loaded with the tritiated monoamine (dopamine or noradrenaline) and then superfused to produce basal neurotransmitter release. The slices are also subjected to 2 short periods of electrical stimulation to effect stimulated transmitter release.
# [3] = between 4 and 8 h after administration, 3 mg/kg
Compound,"REM sleep (Rj: Wistar (Han) rats; between 4 and 8 h after administration, 1 mg/kg)","General activity level (total number of lever presses), overactivity ([1]; FIG. 3)","General activity level (total number of lever presses), overactivity ([1]; FIG. 3, listed as D-amphetamine)",Impulsiveness (number of responses with short IRTs) ([1]; FIG. 4),"Impulsiveness (number of responses with short IRTs) ([1]; FIG. 4, listed as D-amphetamine)",Sustained attention following transformation [1],General activity level (Wistar Kyoto Rat (WKY)),Impulsiveness (Wistar Kyoto Rat (WKY)),Delay to onset of REM sleep compared with the other dose (Rj: Wistar (Han) rats; 3 mg/kg),"Effects on SWS and wake compared with the l-isomer (Rj: Wistar (Han) rats; 3 mg/kg, first 4 h of recording)",SWS (Rj: Wistar (Han) rats; [3]),Waking (Rj: Wistar (Han) rats; [3]),"Duration of effects on the sleep-wake cycle (Rj: Wistar (Han) rats; rat, in vivo)","Overall potency on the sleep-wake cycle (Rj: Wistar (Han) rats; rat, in vivo)",Body weight gain (Rats),Water intake (Rats),Food intake (Rats),Potency in releasing NA from cortex compared with DA from striatum [2],"Sustained attention, performance versus saline ([1]; 2 mg/kg, T-test with dependent samples, p <0.01)","Sustained attention (percentage of correct lever choices) ([1]; low doses, untransformed, FIG. 5)"
CC(N)Cc1ccccc1.NC(CC(=O)O)C(=O)O (racemic) [dl-amphetamine aspartate],reduced,–,–,–,–,–,–,–,–,–,–,–,–,–,–,–,–,–,–,–
C[C@H](N)Cc1ccccc1 [d-amphetamine],–,reduced,more than l-amphetamine,reduced,more than l-amphetamine,disappeared,unaffected,unaffected,tended to be longer,significantly greater than the l-isomer,reduced,increased,longer lasting,more potent than l-amphetamine,dose-related reductions,little effect,decreased food intake over the measured 10 day period,–,–,–
C[C@@H](N)Cc1ccccc1 [l-amphetamine],–,reduced,–,less efficient than d-amphetamine,–,significant improvement,unaffected,unaffected,–,–,–,–,–,–,dose-related reductions,little effect,decreased food intake over the first 1-2 days only,considerably more potent at releasing NA from cortex than DA from striatum,performed better,improved sustained attention more markedly than low doses of d-amphetamine
